Laboratory results as given in patent US7615380B2, “Methods for modulating an immune response by modulating KRC activity” (President and Fellows of Harvard College, priority 2001, dated 2009).

Experiments:
[1] = system: IL-2; experiment: IL-2 ELISA in stably transfected Jurkat clones; format: cell-based, human; conditions: stable Jurkat clones, PMA and ionomycin
Procedure: In panel A Jurkat T cells were stably transfected with vector (pEF) or KRC expression plasmids. Stable clones were stimulated for 18 hours with PMA (50 ng/mL) plus ionomycin (2 μM) and IL-2 production was measured by ELISA. In panel B Primary CD4+ T cells were activated for 36 hours and subsequently transduced with control (RV), KRC, or KRC dominant negative (ZAS2) bicistronic GFP-expressing retroviruses. GFP-positive cells were sorted and stimulated for 24 hours with anti-CD3 or anti-CD3/anti-CD28 antibodies and IL-2 production was measured by ELISA. In panel C CD4 T cells from KRC +/+ or −/− mice were stimulated with anti-CD3 (1.0 μg/mL)/CD28 (0.5 μg/mL) antibodies for 24 hours and IL-2 production was measured by ELISA. In panel D CD4 T cells from KRC +/+ or −/− mice were stimulated with anti-CD3/CD28 antibodies for 72 hours in the presence of 200 U/mL human IL-2. IFNγ production was measured by ELISA.
In this example, increased IL-2 production in Jurkat T cells stably expressing KRC was measured by ELISA. IL-2 promoter activation requires antigen receptor engagement plus an accessory signal usually supplied by an antigen presenting cell (Jain, J., et al. (1995) Curr. Biol. 7:333-342). […] G418 drug-resistant Jurkat clones were expanded and analyzed for IL-2 secretion following activation.

[2] = system: AP-1; experiment: AP-1 luciferase/GFP reporter in 293T cells; format: cell-based, human
Procedure: FIG. 21(A) 293T cells were transfected with c-Jun and myc-KRCtr. 48 hours later, lysates were immunoprecipitated with anti-Myc antibody. Immunoprecipitates were probed by western blotting with anti-c-Jun antibody. FIG. 21(B) (left panel) 293T cells were cotransfected with c-Jun and full length His-KRC. 48 hours later, lysates were immunoprecipitated with anti-His antibody (DE8 Omniprobe) and precipitates were probed by western blotting with anti-c-Jun antibody. (right panel) In vitro translated and S35-labelled c-Jun and His-KRCtr were mixed and immunoprecipitated with anti-His antibody. Recovered c-Jun protein was visualized by autoradiography. FIG. 21(C) Jurkat or EL4 T cells were stimulated with PMA plus ionomycin for 45 minutes. Lysates were immunoprecipitated with anti-c-Jun antibody, and immunoprecipitates were probed with specific anti-KRC rabbit antisera. […] 24 hours later, Luciferase activity was determined as above. […] 24 hours later, luciferase activity was determined as above. […]
To examine the functional consequences of AP-1 degradation by KRC, cotransfection experiments in 293T cells with sense or antisense KRC together with a luciferase-tagged AP-1 reporter construct were performed. […] Conversely, cotransfection of antisense KRC increased AP-1 transactivation as evidenced by an increased number of GFP+ cells as well as an increase in the intensity of fluorescence per cell in. […]

KRC: full-length KRC zinc finger protein (SEQ ID NO:2) overexpressed from an expression vector
IL-2 production [1]: substantially greater amounts of IL-2 | c-Jun and c-Jun plus c-Fos AP-1 activity enhancement ([2]; AP-1 luciferase reporter): approximately 5 fold | AP-1 activity (luciferase-tagged AP-1 reporter) ([2]; sense or antisense KRC cotransfection): decreased stimulation of AP-1 activity
